Calls of active or inactive are those of the source. The calls are words filed in the database; no cut-off is given here.
What was measured:
[1] = system: Human immunodeficiency virus 1; assay: Antiviral activity against wild type HIV1 NL4-3 produced from full length pR9deltaApa infected in human MAGIC-5A cells assessed as inhibition of Lac+ foci expression after 40 hrs; format: functional, organism-based; settings: Human immunodeficiency virus 1, NL4-3, MAGIC-5A
[2] = system: Human immunodeficiency virus 2; assay: Antiviral activity against recombinant HIV2 ROD carrying HIV2 UC2 reverse transcriptase infected in human MAGIC-5A cells assessed as inhibition of Lac+ foci expression after 40 hrs; format: functional, organism-based; settings: Human immunodeficiency virus 2, ISOLATE ROD
[3] = system: Human immunodeficiency virus 2; assay: Antiviral activity against wild type HIV2 ROD produced from full length pROD9 infected in human MAGIC-5A cells assessed as inhibition of Lac+ foci expression after 40 hrs; format: functional, organism-based; settings: for EC50: Human immunodeficiency virus 2, ISOLATE ROD
[4] = system: Human immunodeficiency virus 1; assay: Antiviral activity against multinucleoside-resistant HIV1 NL4-3 harboring A62V, V75I, F77L, F116Y, Q151M mutation in viral reverse transcriptase infected in human MAGIC-5A cells assessed as inhibition of Lac+ foci expression after 40 hrs; format: functional, organism-based; settings: Human immunodeficiency virus 1, NL4-3, MAGIC-5A
[5] = system: Human immunodeficiency virus 1; assay: Selectivity ratio of EC50 for multinucleoside-resistant HIV1 NL4-3 harboring A62V, V75I, F77L, F116Y, Q151M mutation in viral reverse transcriptase to EC50 for wild type HIV1 NL4-3; format: functional
[6] = system: Human immunodeficiency virus 2; assay: Antiviral activity against wild type HIV2 CDC310319 infected in human MAGIC-5A cells assessed as inhibition of Lac+ foci expression after 40 hrs; format: functional, organism-based

| SMILES | EC50 [1] [µM] | EC50 [2] [µM] | EC50 [3] [µM] | Activity ([3]; ISOLATE ROD) | EC50 [4] [µM] | Ratio EC50 [5] | Activity [6] |
| --- | --- | --- | --- | --- | --- | --- | --- |
| Cc1cn([C@H]2C[C@H](N=[N+]=[N-])[C@@H](CO)O2)c(=O)[nH]c1=O [ZIDOVUDINE] | 0.16 | 0.071 | 0.12 | Dose-dependent effect | 7 | 43 | Active |
| Cc1cn([C@H]2C=C[C@@H](CO)O2)c(=O)[nH]c1=O [STAVUDINE] | 5.5 |  | 7.1 |  | 79 | 14 |  |
| Nc1nc(NC2CC2)c2ncn([C@H]3C=C[C@@H](CO)C3)c2n1 [ABACAVIR] | 7.6 |  | 7.2 |  | 40 | 5 |  |
| Nc1ccn([C@@H]2CS[C@H](CO)O2)c(=O)n1 [LAMIVUDINE] | 0.88 |  | 2 |  | 3.7 | 4 |  |
| Nc1nc(=O)n([C@@H]2CS[C@H](CO)O2)cc1F [EMTRICITABINE] | 0.27 |  | 0.5 |  | 0.79 | 3 |  |
| C[C@H](Cn1cnc2c(N)ncnc21)OCP(=O)(O)O [TENOFOVIR ANHYDROUS] | 7.2 |  | 7.2 |  | 26 | 4 |  |
| O=c1[nH]cnc2c1ncn2[C@H]1CC[C@@H](CO)O1 [DIDANOSINE] | 4.7 |  | 8 |  | 45 | 10 |  |
